Experimental data published in a melting point compilation (Tetko et al.; mined from patent text by program, amines drawn as free bases though some values may be those of a salt).

| SMILES | melting point [°C] |
| --- | --- |
| CCOC(=O)c1ccc(Cl)nn1 | 145 to 150 |
| CCCN1CCN(CCCOc2cc3ncc(C#N)c(Nc4cc(OC)c(Cl)cc4Cl)c3cc2OC)CC1 | 97 to 101 |
| CC(C(=O)NN1CCOCC1)C(C#N)(c1ccccc1)c1ccccc1 (configuration not stated) | 210 to 215 |
| CC(CC(C)C1CCC2C3C(=O)CC4CC(=O)CCC4(C)C3CCC12C)C(=O)O (configuration not stated) | 119 |
| CC(C)CCCC(C)C1CCC2C3CCC4CC(OC=O)CCC4(C)C3CCC12C (configuration not stated) | 107 to 108 |
| Nc1nc2c(s1)CCN(CC=Cc1cccc(Cl)c1)CC2 | 132 to 136 |
| COc1cccc(CC(NC(C)=O)C(=O)O)c1OCc1ccccc1 (racemic) | 169 to 170 |
| Nc1cc(C(=O)c2ccccc2)ccc1N1CCOCC1 | 138 |
| CC(C)(C)OC(=O)NNC(=O)c1cc(=O)c(OCc2ccccc2)c[nH]1 | 160 to 165 |
| CCOC1C=CC(=O)N1 (configuration not stated) | 50 to 52 |
| O=S(=O)(c1ccc(F)cc1)n1ccc2ccccc21 | 135 to 137 |
| O=C1NC(=O)c2c(Br)c(Sc3ccc(Cl)cc3)c(Sc3ccc(Cl)cc3)c(Br)c21 | 310 to 315 |
| CC(=O)NCC1CN(c2ccc(N3CCN(c4nc5ccccc5s4)CC3)c(F)c2)C(=O)O1 (configuration not stated) | 239 to 240 |
| CCCCc1ccc(Cn2cc(C3c4ccccc4C=Cc4ccccc43)c(=S)[nH]c2=O)cc1C(=O)O | 230 |
| COc1ccc2c(c1)c(-c1cc3c(Cl)ccnc3[nH]1)cn2C | 250 to 252 |
| Cc1noc(C)c1-c1ccncc1OC1SCC(O)C(O)C1O (configuration not stated) | 175 to 179 |
| Cc1c(Cl)c(Oc2ncc(C(F)(F)F)cc2Cl)nn1C(=O)NC(C)C | 57 to 59 |
| Cc1ccc(C(=O)Nc2c[nH]nc2C(=O)NCCO)cn1 | 233 to 235 |
| N#CCc1cccc(-c2onc3ccccc23)c1 | 122 to 124 |
| Cc1cc(C2=NOC(c3cc(Cl)cc(Cl)c3)(C(F)(F)F)C2)ccc1C(=O)NCC(N)=O (configuration not stated) | 87 to 91 |
| Cc1c(Cl)n(C2OC(CO)C(O)C2O)c2cc(Cl)c(Cl)cc12 (configuration not stated) | 190 to 191 |
| CCCOc1ncc(NCC(=O)OC)cc1-c1nc2c(CCC)nn(C)c2c(=O)[nH]1 | 175 |
| Nc1nc(NCC(O)(c2ccccc2)c2ccccc2)c2ncn(C3OC(CO)C(O)C3O)c2n1 (configuration not stated) | 138 to 140 |
| O=C(Nc1ccc2nc(CN3CCCC3)ccc2c1)N1CCC(c2ccc(F)cc2)CC1 | 206 to 207 |

| SMILES | melting point [°C] |
| --- | --- |
| CC(Br)=C(c1ccc(F)cc1)c1ccc(F)cc1 | 53 to 54 |
| N=C(Nc1cc(Cl)cc(NC(=O)/C=C/c2ccccc2Cl)c1)c1ccccc1 | 105 to 115 |
| COc1ccccc1Oc1c(Cl)nc(N2CCOCC2)nc1OCCOCc1ccccc1 | 133 to 134 |
| CSc1cc(C(C)C)c(NC(=O)C2c3ccccc3COc3ccc(Br)cc32)c(C(C)C)c1 (configuration not stated) | 171 to 172 |
| COc1cc2ncnc(N3CCN(c4ccc5c(c4)CCC(=O)N5)CC3)c2cc1OC | 261 to 262 |
| COc1ccc(CCC(=O)Nc2c(C)c(C)c3c(c2C)[C@@H](c2ccc(C)cc2)C(C)(C)O3)cc1 | 170 to 172 |
| CCOC(=O)c1c(C)cc2nc(C(C)C)n(-c3ccccc3Cl)c(=O)c2c1C | 115 to 116 |
| CCC(CC)NC(=O)Nc1cc(-c2c(-c3ccc(F)c(C)c3)nc3cccnn23)ccn1 | 187 to 188 |
| COc1ccc2c(C3OC(=O)NC3=O)c(OC)ccc2c1 (configuration not stated) | 175 to 180 |
| N#CC1=C(C2CCC2)Nc2n[nH]cc2C1c1cccc(C#N)c1Br (configuration not stated) | 278 |
| CC(=O)Nc1cccc2c1C1(COc3cc4c(cc31)OCCO4)C(=O)N2C (configuration not stated) | 182 to 184 |
| COc1cncc2nc(SCc3ccccc3)nn12 | 114 to 116 |
| CC(C)c1nc(N)cc(=O)[nH]1 | 229 to 230 |
| COc1c(C(C)(C)C)cc(C=O)c(O)c1Br | 123 to 124 |
| COc1cc(OC)nc(Oc2cccc3c2C(=O)OC3C#N)n1 (configuration not stated) | 157 to 159 |
| COc1ccc(CNc2nc(OCc3ccccn3)ncc2C(=O)c2ccccn2)cc1Cl | 81 to 84 |
| CC(=O)OC1CSC(Oc2ccc(-c3cccs3)nc2)C(OC(C)=O)C1OC(C)=O (configuration not stated) | 172 |
| CC(C)(C)c1cccc(S(=O)(=O)n2c(Cc3cccc(C(=O)O)c3)cc3cc(C(F)(F)F)ccc32)c1 | 146 |
| CCC(C)(O)C#Cc1ccc(C(CC2CCCC2)C(=O)O)cc1 (configuration not stated) | 91 to 94 |
| CCCOC(=O)C1Oc2ccccc2Cc2ccccc2O1 | 82 to 85 |
| COCCC(O)c1cc2c(=O)n(NS(C)(=O)=O)c(=O)[nH]c2cc1C(F)(F)F (configuration not stated) | 180 to 184 |
| CC(C)C(N)C(O)COc1ccccc1C1=NNC(=O)CC1 (configuration not stated) | 124 to 126 |
| CCCCC1(N(C)C)CCC(c2[nH]c3ccc(C#N)cc3c2C)CC1 (configuration not stated) | 162 to 166 |
| OCc1ccc(OCc2coc(-c3ccccc3)n2)cc1 | 141 to 142 |

| SMILES | melting point [°C] |
| --- | --- |
| CC1=NN=C(c2ccc([N+](=O)[O-])cc2)c2ccc(Cl)cc2C1 | 227 to 228 |
| CCC1(CCCCN2CCN(c3cccc(OC)c3)CC2)C(=O)Nc2ccccc21 (configuration not stated) | 123 to 125 |
| O=C(/C=C/c1cccc(-c2cccc([N+](=O)[O-])c2)c1)Nc1ccc(CN2CCCCC2)cc1 | 178 to 179 |
| O=C1Cc2cc(C(=O)O)ccc2N1 | > 300 |
| O=C(O)c1ccc(C(c2ccccc2)(c2ccc(C(=O)O)c(C(=O)O)c2)C(F)(F)F)cc1C(=O)O | 210 to 213 |
| OCc1c(CO)c(-c2ccc(Cl)cc2)n2c1Cc1ccccc1C2 | 170 to 171 |
| N#Cc1ccc(NC(=O)c2cccc(OCc3cc(F)cc(F)c3)c2)cc1 | 185 to 187 |
| CCOc1ccnc(N2CCN(C(=O)c3ccccc3C#N)CC2)n1 | 151 to 154 |
| CCCCS(=O)(=O)Oc1cn(C)c2ccccc2c1=O | 143 to 144 |
| Cn1nc(-n2ncc(C(N)=S)c2Br)c(Cl)c1OC(F)F | 175 |
| CC(C)(C)c1ccc(S(=O)(=O)C(CCl)Sc2ccccc2)cc1 (configuration not stated) | 104 to 106 |
| CC(=O)c1cc(C(C)=O)c(O)cc1N | 227 to 230 |
| Cc1nnc(-c2ccc3occ(-c4ccc(S(C)(=O)=O)cc4)c3n2)o1 | 250 to 251 |
| COC(=O)c1cc(COc2ccccc2)cc(C(=O)OC)c1 | 95 to 97 |
| Clc1ccc2nc(-c3ccco3)c(I)n2n1 | 260 to 263 |
| O=c1cc(C(F)(F)F)[nH]c(=O)n1-c1cc(O)c(Cl)cc1F | 68 to 72 |
| Cc1cc(C)c2occ(-c3ccccc3)c2c1 | 131 to 132 |
| CCCc1c(OCCCOc2ccc([C@H]3OC(=O)C[C@H]3C)cc2)ccc(C(C)=O)c1O | 88.5 to 89.5 |
| CCOCn1c(-c2cc(F)cc(F)c2)c(C#N)c(Br)c1C(F)(F)F | 74 to 75 |
| O=C(COc1ccc(C(=O)CN2CCN(c3ccncc3)CC2)cc1)NCc1ccccc1 | 150 to 151 |
| O=Cc1c2cccc(Cl)c2c(Cl)c2c(Cl)cccc12 | 118 to 120 |
| COc1ccccc1C(=O)c1cccc(N)c1 | 81 |
| Nc1nc(NCCO)nc(-c2cc(Cl)ccc2Cl)n1 | 198 to 199 |
| COc1cc(CN2CCN(c3ccc(O)cc3)CC2)nc(-c2ccccc2)n1 | 166 to 167 |
